Read-outs that look alike come from different tables or passages of the source.
Assays:
HL-60(TB) [1] = assay: cells; settings: Homo sapiens
DU-145 = settings: for TGI: DU-145
HCT-116 = settings: for TGI: HCT-116
Bcl-2 = Bcl-2 (Homo sapiens, UniProt P10415); assay: Bcl-2 inhibitory activity; type: biochemical; settings: Bcl-2, mean ± SE of three
Description: These assays were carried out as reported earlier[38]^,[39].

RPMI-8226 = settings: for TGI: RPMI-8226
NCI-H226 = assay: cells; settings: Homo sapiens
ACHN = assay: cells; settings: Homo sapiens
OVCAR-4 = assay: cells; settings: Homo sapiens
UACC-257 = assay: cells; settings: Homo sapiens
K-562 = assay: cells; settings: Homo sapiens
MOLT-4 [2] = test system: MOLT-4
NCI-H460 = assay: NCI SRB screening; type: cell-based, human
NCI-H23 = settings: for TGI: NCI-H23
UACC-62 = assay: cells; settings: Homo sapiens
SK-MEL-28 = assay: cells; settings: Homo sapiens
MALME-3M = assay: cells; settings: Homo sapiens
BT-549 = assay: cells; settings: Homo sapiens
TK-10 [3] = assay: cells; settings: Homo sapiens
RXF 393 [4] = settings: for TGI: RXF 393
OVCAR-8 = assay: cells; settings: Homo sapiens
HL-60(TB) [5] = test system: HL-60(TB)
MOLT-4 [6] = assay: cells; settings: Homo sapiens
HCT-15 = settings: for TGI: HCT-15
TK-10 [7] = settings: for TGI: TK-10
SF-268 = assay: cells; settings: Homo sapiens
CCRF-CEM = assay: cells; settings: Homo sapiens
T-47D = assay: cells; settings: Homo sapiens, T47D
A549/ATCC = assay: cells; settings: Homo sapiens
SNB-75 = settings: for TGI: SNB-75
MDA-MB-435 = assay: NCI SRB screening; type: cell-based
A-549 = assay: SRB anti-proliferative assay; type: cell-based; settings: Homo sapiens, A549; A-549, SRB, mean ± SE of 3
Description: Staurosporine, a clinically used antitumor drug, was co-assayed as a reference agent for the experiment.
Examination of the cytotoxic activity for the target conjugates was carried out in accordance with the SRB colorimetric assay protocol, as described previously.
In vitro anti-proliferative activity assay
Cells at a concentration of 0.50 x
Sulfo-Rhodamine-B stain (SRB) assay.
cell to the wall of the plate.
wells were prepared for each individual dose).
Unbound dye was removed by four

HOP-92 = settings: for TGI: HOP-92
U251 = assay: cells; settings: Homo sapiens
HT29 = assay: cells; settings: Homo sapiens
MDA-MB-468 = assay: cells; settings: Homo sapiens
RXF 393 [8] = assay: cells; settings: Homo sapiens
[9] = SK-OV-3, listed as D - 795311 / 1

Bcl-2, sequence (P10415 whole entry): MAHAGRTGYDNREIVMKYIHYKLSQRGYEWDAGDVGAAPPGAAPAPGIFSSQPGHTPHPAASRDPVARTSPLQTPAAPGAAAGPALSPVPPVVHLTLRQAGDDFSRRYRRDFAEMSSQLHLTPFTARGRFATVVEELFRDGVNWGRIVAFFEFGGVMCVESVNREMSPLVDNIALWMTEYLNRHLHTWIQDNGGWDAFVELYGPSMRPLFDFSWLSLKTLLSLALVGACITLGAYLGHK

## CCCn1cc(C=NN=C2C(=O)Nc3ccc(C)cc32)c2ccccc21 [Compound 8a]
HL-60(TB) [1]; HL-60
  GI50: 1.31 µM
HL-60(TB) [1]; HL-60, read-out: LC50
  CC50: > 100 µM
DU-145
  TGI: 40.60 µM
DU-145; DU-145, 10 μM
  GI %: 34%
DU-145; DU-145, 1.00E-5 Molar
  Growth Percent: 66.43%
DU-145; listed as D - 795311 / 1
  TGI: 4.06E-5 Molar
HCT-116
  TGI: 4.17 µM
HCT-116; HCT-116, 10 μM
  GI %: 60%
HCT-116; HCT-116, 1.00E-5 Molar
  Growth Percent: 39.85%
HCT-116; listed as D - 795311 / 1
  TGI: 4.17E-6 Molar
HCT-116; human, 48 h
  CC50: 9.96 µM
Bcl-2
  IC50: 0.46 ± 0.02 µM
SR
  GI50: 0.52 µM
  TGI: 8.72 µM
SR; 10 μM
  GI %: 89%
SR; 1.00E-5 Molar
  Growth Percent: 11.60%
SR; listed as D - 795311 / 1
  TGI: 8.72E-6 Molar
RPMI-8226
  TGI: 3.96 µM
RPMI-8226; RPMI-8226, 10 μM
  GI %: 125%
RPMI-8226; RPMI-8226, 1.00E-5 Molar
  Growth Percent: -24.86%
RPMI-8226; listed as D - 795311 / 1
  TGI: 3.96E-6 Molar
HS 578T
  TGI: >100 µM
HS 578T; 10 μM
  GI %: 26%
HS 578T; 1.00E-5 Molar
  Growth Percent: 74.02%
HS 578T; listed as D - 795311 / 1
  TGI: > 1.00E-4 Molar
NCI-H226; NCI-H226
  GI50: 2.95 µM
NCI-H226; NCI-H226, read-out: LC50
  CC50: > 100 µM
ACHN
  GI50: 3.56 µM
ACHN; read-out: LC50
  CC50: > 100 µM
OVCAR-4; OVCAR-4, OVCAR-4
  GI50: 0.935 µM
OVCAR-4; OVCAR-4, read-out: LC50
  CC50: > 100 µM
UACC-257; UACC-257
  GI50: 12.3 µM
UACC-257; UACC-257, read-out: LC50
  CC50: > 100 µM
K-562; K562
  GI50: 2.22 µM
K-562; K562, read-out: LC50
  CC50: > 100 µM
MOLT-4 [2]; MOLT-4
  GI50: 0.68 µM
  TGI: 4.54 µM
MOLT-4 [2]; MOLT-4, 10 μM
  GI %: 110%
MOLT-4 [2]; MOLT-4, 1.00E-5 Molar
  Growth Percent: -9.90%
MOLT-4 [2]; MOLT-4, listed as D - 795311 / 1
  TGI: 4.54E-6 Molar
NCI-H460; Homo sapiens, NCI-H460
  GI50: 2.17 µM
NCI-H460; NCI-H460
  TGI: 10.6 µM
NCI-H460; NCI-H460, 10 μM
  GI %: 68%
NCI-H460; NCI-H460, 1.00E-5 Molar
  Growth Percent: 32.08%
NCI-H460; NCI-H460, listed as D - 795311 / 1
  TGI: 1.06E-5 Molar
NCI-H23
  TGI: 38.2 µM
NCI-H23; NCI-H23, 10 μM
  GI %: 52%
NCI-H23; NCI-H23, 1.00E-5 Molar
  Growth Percent: 48.03%
NCI-H23; listed as D - 795311 / 1
  TGI: 3.82E-5 Molar
UACC-62; UACC-62
  GI50: 2.24 µM
UACC-62; UACC-62, read-out: LC50
  CC50: > 100 µM
SK-MEL-28; SK-MEL-28
  GI50: 4.7 µM
SK-MEL-28; SK-MEL-28, read-out: LC50
  CC50: > 100 µM
MALME-3M
  GI50: 1.88 µM
MALME-3M; read-out: LC50
  CC50: > 100 µM
BT-549; BT-549
  GI50: 1.79 µM
BT-549; BT-549, read-out: LC50
  CC50: > 100 µM
TK-10 [3]; TK-10
  GI50: 11.1 µM
TK-10 [3]; TK-10, read-out: LC50
  CC50: > 100 µM
SK-OV-3; SK-OV-3
  TGI: 67.10 µM
SK-OV-3; SK-OV-3, 10 μM
  GI %: 12%
SK-OV-3; SK-OV-3, 1.00E-5 Molar
  Growth Percent: 88.36%
SK-OV-3; [9]
  GI50: 11.7 µM
  TGI: 6.71E-5 Molar
RXF 393 [4]
  TGI: 7.94 µM
RXF 393 [4]; RXF 393, 10 μM
  GI %: 89%
RXF 393 [4]; RXF 393, 1.00E-5 Molar
  Growth Percent: 11.38%
RXF 393 [4]; listed as D - 795311 / 1
  TGI: 7.94E-6 Molar
OVCAR-8; OVCAR-8
  GI50: 5.41 µM
OVCAR-8; OVCAR-8, read-out: LC50
  CC50: > 100 µM
HL-60(TB) [5]; HL60(TB)
  TGI: 4.80 µM
HL-60(TB) [5]; HL-60(TB)
  TGI: 4.80E-6 Molar
HL-60(TB) [5]; HL-60(TB), 10 μM
  GI %: 123%
HL-60(TB) [5]; HL-60(TB), 1.00E-5 Molar
  Growth Percent: -22.61%
MOLT-4 [6]; MOLT-4, MOLT-4
  GI50: 0.682 µM
MOLT-4 [6]; MOLT-4, read-out: LC50
  CC50: > 100 µM
HCT-15
  TGI: 42.2 µM
HCT-15; HCT-15, 10 μM
  GI %: 77%
HCT-15; HCT-15, 1.00E-5 Molar
  Growth Percent: 23.04%
HCT-15; listed as D - 795311 / 1
  TGI: 4.22E-5 Molar
TK-10 [7]
  TGI: >100 µM
TK-10 [7]; TK-10, 10 μM
  GI %: – (Only GI % higher than 10% are shown)
TK-10 [7]; TK-10, 1.00E-5 Molar
  Growth Percent: 106.72%
TK-10 [7]; listed as D - 795311 / 1
  TGI: > 1.00E-4 Molar
SF-268; SF-268
  GI50: 3.33 µM
SF-268; SF-268, read-out: LC50
  CC50: > 100 µM
CCRF-CEM
  GI50: 1.94 µM
CCRF-CEM; read-out: LC50
  CC50: > 100 µM
T-47D; T-47D
  GI50: 0.416 µM
T-47D; read-out: LC50
  CC50: > 100 µM
A549/ATCC; A549
  GI50: 7.18 µM
A549/ATCC; A549, read-out: LC50
  CC50: > 100 µM
SNB-75
  TGI: 46.0 µM
SNB-75; SNB-75, 10 μM
  GI %: 15%
SNB-75; SNB-75, 1.00E-5 Molar
  Growth Percent: 85.63%
SNB-75; listed as D - 795311 / 1
  TGI: 4.60E-5 Molar
MDA-MB-435; Homo sapiens, MDA-MB-435
  GI50: 1.5 µM
MDA-MB-435; MDA-MB-435
  TGI: 2.96 µM
MDA-MB-435; MDA-MB-435, 10 μM
  GI %: 127%
MDA-MB-435; MDA-MB-435, 1.00E-5 Molar
  Growth Percent: -26.64%
MDA-MB-435; MDA-MB-435, listed as D - 795311 / 1
  TGI: 2.96E-6 Molar
A-549
  IC50: 7.3 ± 0.42 µM
HOP-92
  TGI: 6.57 µM
HOP-92; HOP-92, 10 μM
  GI %: 63%
HOP-92; HOP-92, 1.00E-5 Molar
  Growth Percent: 37.42%
HOP-92; listed as D - 795311 / 1
  TGI: 6.57E-6 Molar
U251; U-251
  GI50: 3.51 µM
U251; U-251, read-out: LC50
  CC50: > 100 µM
HT29; HT-29
  GI50: 3.4 µM
HT29; HT-29, read-out: LC50
  CC50: > 100 µM
MDA-MB-231/ATCC; MDA-MB-231, 10 μM
  GI %: 66%
MDA-MB-231/ATCC; MDA-MB-231/ATCC
  TGI: 7.40 µM
MDA-MB-231/ATCC; MDA-MB-231/ATCC, 1.00E-5 Molar
  Growth Percent: 34.35%
MDA-MB-231/ATCC; MDA-MB-231/ATCC, listed as D - 795311 / 1
  TGI: 7.40E-6 Molar
MDA-MB-468; MDA-MB-468
  GI50: 1.69 µM
MDA-MB-468; MDA-MB-468, read-out: LC50
  CC50: 79.4 µM
RXF 393 [8]; RXF 393
  GI50: 2.17 µM
RXF 393 [8]; RXF 393, read-out: LC50
  CC50: > 100 µM
